Measurements taken from patent US9475783B2, “Antimicrobial agents” (Rutgers, the State University of New Jersey, priority 2012, dated 2016).
In brackets after ≈: the same amount, converted by molar mass.

Legend:
[1] = system: Bacillus subtilis FG347 bacteria; experiment: Test C FtsZ Z-ring assay (GFP-ZapA fluorescence microscopy); type: cell-based; conditions: compound at 3 μg/mL
Description: Test C. FtsZ Z-Ring Assay.
The impact of a compound on FtsZ Z-ring formation can be determined using a strain of Bacillus subtilis (FG347) that expresses a green fluorescent protein (GFP)-ZapA fusion protein upon induction with xylose. ZapA is known to associate with FtsZ Z-rings in B. subtilis and, thus, serves as a marker for Z-ring formation. In this assay, log-phase FG347 bacteria are treated with differing concentrations of compound for time periods ranging from 1 to 6 hours. At each time point, aliquots are taken from each culture and then viewed with a fluorescence microscope.
Examples 4 and 6-8 were evaluated for their impact on the polymerization of Staphylococcus aureus FtsZ. […] In addition, Example 5 and 7 were also examined for their impact on FtsZ Z-ring formation in Bacillus subtilis FG347 bacteria. […] These collective results highlight the compounds of the invention as FtsZ-targeting antibacterial agents.

MSSA = experiment: Test A antibacterial assay, broth microdilution MIC; type: cell-based; conditions: Staphylococcus aureus, growth read after 24 to 48 hours at OD 600 nm
Description: Test A. Antibacterial Assay. Antibacterial activity can be determined as per Clinical and Laboratory Standards Institute (CLSI) guidelines using a broth microdilution assay in which log-phase bacteria are grown at 37° C. in appropriate medium containing two-fold serial dilutions of a compound to yield final concentrations ranging from 256 to 0.06 μg/mL. For determination of minimal inhibitory concentration (MIC) values, bacterial growth is monitored after 24 to 48 hours by measuring optical density at 600 nm.

[2] = type: in vivo; conditions: formulated in 20% DMA, 40% proplyeneglycol in 8% Cremophor-EL; apparent embolitic effect from drug precipitation
Description: The literature vehicle reported for formulation of 5-chloro-2-(2,4-difluoro-3-aminocarbonylphenoxy)methylpyridylthiazole for i.v. administration consists of 20% DMA, 40% polyethylene glycol and 40% saline. […] Mice that were treated 15 minutes later with a second injection consisting of 150 μl of this vehicle died. In addition, concentrations of 5-chloro-2-(2,4-difluoro-3-aminocarbonylphenoxy)methylpyridylthiazole at or above 2.2 mg/ml in this vehicle were not completely dissolved and existed as a suspension (in a 28 g mouse this would be 15.7 mg/kg). A number of other formulations with 5-chloro-2-(2,4-difluoro-3-aminocarbonylphenoxy)methyl benzothiazole were tried, such as 20% DMA, 40% proplyeneglycol in 8% Cremophor-EL. […] Because of the limited solubility and the absence of a suitable vehicle, the literature study where it was reported that a 30 mg/kg dose of 5-chloro-2-(2,4-difluoro-3-aminocarbonylphenoxy)methylpyridylthiazole was delivered to mice in a single injection could not be repeated. […] In some instances the addition of 10-30% propylene glycocol did allow for greater retention of solubility of the test compounds. Example 4 was also found to formulate well at a 2.0 mg/ml concentration in 10 mM malic acid with 20% propylene glycol and with 10 mM p-toluenesulphonate alone. Example 6 did formulate well in 10 mM citrate alone at a concentration of 2.0 mg/ml. […]

O=C(NCN1CCOCC1)c1c(F)ccc(OCc2nc3cc(Cl)cnc3s2)c1F [Example 7]
bacterial morphology induced [1]: elongated, filamentous morphology
impact on FtsZ Z-ring formation [1]: inhibit FtsZ Z-ring formation
MIC (MSSA): 0.5 µg/mL (≈ 1.1 µM)

NC(=O)c1c(F)ccc(OCc2nc3cc(Cl)ccc3s2)c1F [5-chloro-2-(2,4-difluoro-3-aminocarbonylphenoxy)methyl benzothiazole]
outcome of mice treated with the formulation [2]: died within a few minutes
